Marks after values point to notes of the source that are not given here. Starred links: 1 amine or outer side, 2 acyl side, 3 side chain; linkers in the order of their positions; H or OH if unused. Positions of bridges follow the written chain, without caps; N, C: chain ends. Non-standard residues stand in square brackets, D forms with d. Residues, ends and D or L forms follow the SMILES beside them. *: point of attachment. X1 = CC[C@H](C)[C@@H](N[*:1])[C@@H](O)CC(=O)O[C@H](C(=O)[C@H](C)C(=O)[*:2])C(C)C; NMeY = CN[C@@H](Cc1ccc(O)cc1)C(=O)O; dNMeL = CN[C@H](CC(C)C)C(=O)O; Pyruvoyl = CC(=O)C(=O)*
Legend:
[1] = Stability of aplidine solution and lyophilised dosage form; format: physicochemical
Procedure: In a currently preferred embodiment freeze-drying was performed from a […] solution of aplidine in 40% (v/v) tert-butanol in Water for Injection (Wfl) containing 25 mg/mL D-mannitol as bulking agent. […] Both reconstituted product and dilutions (up to 1:100 v/v) of the reconstituted product with normal saline appeared to be stable for at least 24 hours after preparation.

[2] = tested on: NP9 human pancreatic carcinoma; assay: NP9 human pancreatic carcinoma xenograft, primary tumour; format: in vivo, Nu/Nu Swiss mice; conditions: for Solid tumour weight (g) / Total tumour weight (g): 0.8 mg/kg q4d ip
Description: (§1) Aplidine is a new cyclic depsipeptide with anticancer activity in vitro and in vivo in different tumour types, but it has not been tested in pancreatic carcinoma. Nevertheless, this pathology has a poor prognosis because of difficult early diagnosis, aggressiveness and lack of effective systemic therapies. Most patients die of metastases present at diagnosis. We compared the antitumour effect of aplidine against 2 human pancreatic carcinomas, NP9 and NP18, using orthotopic (ORP) and subcutaneous (SC) tumour implantation models. […] METHODS: Groups of ten male Nu/Nu Swiss mice (4 wk old) were treated with vehicle or aplidine. To evaluate primary tumour response, ip aplidine was given, starting 2 weeks (wk) after implantation, at 0.8 mg/kg q4d for 4 wk (NP9) or at 0.8 mg/kg q4d for 6 wk, ceasing treatment the 4th and 5th wk (NP18). To evaluate the response of NP9 metastasis aplidine regime was 0.8 mg/kg q4d per 3 doses, starting 4 weeks after implantation. We measured final tumour weight, macroscopic viability (viable cortex/total tumour weight), microscopic necrosis, apoptotic induction and signal transduction. […] This effect was due to apoptotic induction leading to a reduced number of viable cells in both tumours. Apoptotic induction on NP18 was associated with PARP cleavage and reduced AKT activation, only in ORT-treated tumours. aplidine induced a decrease in cyclins B1 and D1 and FAK expression only in ORT NP9-treated tumours. […] CONCLUSIONS: The use of an ORT implantation model permitted the observation of the antitumour effect of aplidine on primary tumours and metastases of human pancreatic carcinomas. aplidine altered apoptotic and proliferative pathways, which could explain its antitumour effect.
(§2) We used two human pancreatic carcinomas (NP18 and NP9) perpetuated as orthotopic xenografts in nude mice. NP9 produce an extensive peritoneal dissemination 4-5 weeks after implantation (metastatic). We implanted these tumours in four week-old male Nu/Nu Swiss mice (Charles River), housed in autoclaved cages and provided y-ray sterilized bedding and food. They were anesthetized with 2,2,2-tribromoethanol (Sigma-Aldrich) and 10 mg fragments of each tumour from previous passages were implanted orthotopically (ORT, at the pancreas). Xenografted animals were randomly distributed in control (n=10) and experimental (n=10) groups just before treatment. We excluded animals bearing non palpable tumours after ORT implantation, or with tumour volumes lower than 0.13 cm^3 (0.5 cm in diameter). Treatment schedule depended on tumour growth rate. In the fast growing NP9 tumour, two schedules of treatment were used. In one, treatment started two weeks after tumour implantation, before peritoneal dissemination had occurred. Each animal in the experimental group received ip administrations of aplidine at a dose of 0.8 mg/Kg q4d per four weeks. In the other schedule, treatment started four weeks after tumour implantation, once peritoneal dissemination had occurred, with a regime of aplidine of 0.8 mg/Kg q4d per three doses. The existence of macroscopically visible implants was confirmed one day before the treatment begun, by the sacrifice of one extra animal. In the NP18 tumour, treatment started 4 weeks after tumour implantation and the schedule of aplidine was 0.8 mg/Kg q4d ip for 4 weeks, ceasing treatment for two weeks, and continuing with 0.8 mg/Kg q4d ip for two additional weeks. The animals in the corresponding control groups received i.p. administrations of vehicle following the same schedule. After implantation, and during treatment, mice were inspected twice a week and weighted weekly to monitor for compound toxicity.
(§3) At the end of treatment, animals were euthanized and dissemination recorded. Primary tumours were excised and weighted in all groups. Tumor aliquots were frozen down in liquid nitrogen or fixed in formaline. We counted the number of peritoneal implants in each animal and took samples for histological and molecular analysis. […]

[3] = tested on: NP18 human pancreatic carcinoma; assay: NP18 human pancreatic carcinoma xenograft, primary tumour; format: in vivo, Nu/Nu Swiss mice; conditions: for Total tumour weight (g): 0.8 mg/kg q4d ip
Description: as §1, §2, §3

NP9 peritoneal implants = assay: NP9 peritoneal metastases after orthotopic implantation; format: in vivo, Nu/Nu Swiss mice
Description: as §1, §2, §3

MDA-MB231 = conditions: aplidine 50 nmol/L; cited from earlier work
MCF-7 = conditions: aplidine 50 nmol/L; cited from earlier work
[4] = tested on: CT-1, CT-2 and HT-29 cell lines; conditions: CT-1, CT-2, HT-29; cited from earlier work
ornithine decarboxylase = target: T1, ornithine decarboxylase (Homo sapiens, UniProt P11926); conditions: all three cell lines; cited from earlier work
T1 construct: endogenous in cells; host or cells: CT-1, CT-2 and HT-29 colon cell lines
T1 sequence (P11926 1-461): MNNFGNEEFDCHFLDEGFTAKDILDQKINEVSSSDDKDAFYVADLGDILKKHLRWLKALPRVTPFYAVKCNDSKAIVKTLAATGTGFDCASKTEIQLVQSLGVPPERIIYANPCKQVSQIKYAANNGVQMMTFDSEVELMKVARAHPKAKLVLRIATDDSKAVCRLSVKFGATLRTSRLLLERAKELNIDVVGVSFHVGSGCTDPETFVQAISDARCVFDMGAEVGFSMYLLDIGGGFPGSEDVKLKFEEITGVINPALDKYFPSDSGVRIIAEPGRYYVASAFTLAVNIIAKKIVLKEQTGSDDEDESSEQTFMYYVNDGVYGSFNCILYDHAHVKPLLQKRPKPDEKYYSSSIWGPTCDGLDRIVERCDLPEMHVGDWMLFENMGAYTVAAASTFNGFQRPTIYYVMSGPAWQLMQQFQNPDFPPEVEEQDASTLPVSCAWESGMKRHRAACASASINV

[5] = tested on: Non-small cell lung cancer, breast cancer and melanoma cell lines; conditions: continuous exposure; cited from earlier work
human cancer xenografts = conditions: cited from earlier work
gastric tumours = conditions: 1.25 mg/kg; cited from earlier work
prostate tumour = conditions: 1.25 mg/kg; cited from earlier work
[6] = tested on: P388 leukaemia and B 16 melanoma; conditions: mouse, in vivo; cited from earlier work
lewis lung carcinomas = conditions: cited from earlier work
pancreatic tumour = conditions: 4 patients with pancreatic tumour, phase I; cited from earlier work

Q: With `CC[C@H](C)[C@H]1NC(=O)[C@@H](NC(=O)[C@@H](CC(C)C)N(C)C(=O)[C@@H]2CCCN2C(=O)C(C)=O)[C@@H](C)OC(=O)[C@H](Cc2ccc(OC)cc2)N(C)C(=O)[C@@H]2CCCN2C(=O)[C@H](CC(C)C)NC(=O)[C@@H](C)C(=O)[C@H](C(C)C)OC(=O)C[C@@H]1O` [aplidine] (Pyruvoyl-P[dNMeL]T[X1]LP[NMeY](Me); ester 3-C) as the molecule, how does the “degradation under stress testing” value [1] read?
A: substantial degradation

Q: And the “active forms of caspases 3, 7 or 8 (Western blot)” value ([2]; NP9)?
A: No active forms of caspases 3, 7 or 8 were detected

Q: And the “FAK expression (Western blot)” value ([2]; NP9, ORT)?
A: downregulation of FAK

Q: And the “cyclin B1 and cyclin D1 expression (Western blot)” value ([2]; NP9, ORT)?
A: decreased expression of cyclin B1 and cyclin D1

Q: And the “macroscopic appearance, invasion by primary tumour” value ([2]; NP9, ORT)?
A: did not invade other organs of the peritoneum

Q: And the “foci of non-viable/necrotic cells, share of each tumour” value ([2]; NP9, ORT treated)?
A: 75-100%

Q: And the “Solid tumour weight (g)” value ([2]; NP9, ORT)?
A: 3.04 ± 1.04^f g

Q: What about the “Total tumour weight (g)” value ([2]; NP9, ORT) of the same molecule?
A: 3.72 ± 1.09^b g

Q: What about the Ki67 ([2]; NP9, ORT, viable tissue) of the same molecule?
A: downregulation

Q: And the “apoptosis (Hoescht nuclear staining)” value ([2]; NP9, ORT, viable tissue)?
A: significantly increased apoptosis

Q: And the “cyclin B1 and cyclin D1 levels (Western blot)” value ([2]; NP9, SC)?
A: no differences in cyclin B1 or cyclin D1 levels

Q: What about the “Solid tumour weight (g)” value ([2]; NP9, SC) of the same molecule?
A: 0.87 ± 0.44^e g

Q: What about the “Total tumour weight (g)” value ([2]; NP9, SC) of the same molecule?
A: 1.56 ± 0.8^a g

Q: What about the “difference in total or solid tumour weight vs control” value ([2]; NP9, any site) of the same molecule?
A: no significant differences

Q: And the “ERK activation (Western blot)” value ([2]; NP9, both tumour sites)?
A: ERK activation was unaltered

Q: What about the “size or macroscopic appearance of primary tumour” value ([3]; NP18) of the same molecule?
A: did not significantly change

Q: What about the “AKT activation (Western blot)” value ([3]; NP18, ORT) of the same molecule?
A: Decrease AKT activation

Q: What about the “PARP cleavage (Western blot)” value ([3]; NP18, ORT) of the same molecule?
A: PARP cleavage

Q: What about the “caspases 3, 7 and 8 (Western blot)” value ([3]; NP18, ORT) of the same molecule?
A: activation of caspases 3, 7 and 8

Q: What about the “microscopic necrosis (H&E)” value ([3]; NP18, ORT treated vs ORT control) of the same molecule?
A: significantly higher level of necrosis

Q: What about the “Total tumour weight (g)” value ([3]; NP18, ORT) of the same molecule?
A: 9.34 ± 1.3^d g

Q: And the “apoptosis (Hoescht nuclear staining)” value ([3]; NP18, ORT, viable tissue)?
A: significantly increased apoptosis

Q: What about the “AKT, caspases 3, 7, 8 and PARP regulation (Western blot)” value ([3]; NP18, SC) of the same molecule?
A: did not alter the regulation of any of these proteins

Q: What about the “Total tumour weight (g)” value ([3]; NP18, SC) of the same molecule?
A: 15.5 ± 5.3^c g

Q: And the “ERK activation (Western blot)” value ([3]; NP18, any site)?
A: No differences in ERK activation

Q: And the “difference in total or solid tumour weight vs control” value ([3]; NP18, any site)?
A: no significant differences

Q: What about the “apoptotic nuclei per treated implant (Hoescht)” value (NP9 peritoneal implants; established metastases) of the same molecule?
A: 3-6

Q: And the “Caspase-3 activation and PARP cleavage in metastases” value (NP9 peritoneal implants; mouse, in vivo)?
A: No activation of Caspase-3 nor PARP cleavage

Q: What about the “necrosis in peritoneal implants (H&E)” value (NP9 peritoneal implants; mouse, in vivo) of the same molecule?
A: did not contain necrotic areas

Q: And the peritoneal implants (NP9 peritoneal implants; treatment initiated before dissemination, 0.8 mg/Kg q4d four weeks)?
A: no peritoneal implants were observed in any animal

Q: What about the “diameter of peritoneal implants” value (NP9 peritoneal implants; treatment started once metastases macroscopically evident) of the same molecule?
A: less than 1 mm

Q: And the “number of peritoneal implants per animal” value (NP9 peritoneal implants; treatment started once metastases macroscopically evident, 0.8 mg/Kg q4d three doses)?
A: 7-20

Q: What about the “ERK activation in metastases” value (NP9 peritoneal implants; vs control metastases) of the same molecule?
A: lower ERK activation

Q: And the inhibition of growth (MDA-MB231)?
A: 17%

Q: And the inhibition of growth (MCF-7)?
A: 47%

Q: What about the cytotoxic activity [4] of the same molecule?
A: dose-dependent cytotoxic activity

Q: What about the ornithine decarboxylase activity (ornithine decarboxylase) of the same molecule?
A: decreased ornithine decarboxylase activity

Q: What about the “concentration to which cell lines were sensitive” value [5] of the same molecule?
A: >= 0.001 micromol/L

Q: And the “treated/control (T/C) tumour ratio” value (human cancer xenografts; 2.1 mg/kg)?
A: 9%

Q: And the maximum tolerated dose (human cancer xenografts; mice bearing human cancer xenografts)?
A: 2.1 mg/kg

Q: And the T/C (gastric tumours)?
A: 14%

Q: And the T/C (prostate tumour)?
A: 25%

Q: What about the “activity against implanted tumours” value [6] of the same molecule?
A: active

Q: What about the optimal dose [6] of the same molecule?
A: 160 micro/kg

Q: What about the “activity in SC implanted lewis lung carcinomas” value (lewis lung carcinomas) of the same molecule?
A: active

Q: And the “tumour response of patients” value (pancreatic tumour)?
A: did not respond

Q: With `CC[C@H](C)[C@H]1NC(=O)[C@@H](NC(=O)[C@@H](CC(C)C)N(C)C(=O)[C@@H]2CCCN2C(=O)C(C)O)[C@@H](C)OC(=O)[C@H](Cc2ccc(OC)cc2)N(C)C(=O)[C@@H]2CCCN2C(=O)[C@H](CC(C)C)NC(=O)[C@@H](C)C(=O)[C@H](C(C)C)OC(=O)C[C@@H]1O` (some centres unmarked) [didemnin B, reference compound] as the molecule, how does the “activity in SC implanted lewis lung carcinomas” value (lewis lung carcinomas) read?
A: Unlike didemnin B, aplidine was active
